Reference: US5047414A, “2-(aminoalkylthio)methyl-1,4-dihydropyridine, a method for the preparation thereof and pharmaceutical compositions containing them” (Boehringer Biochemia Robin S.p.A., priority 1986, dated 1991)
Read-outs that look alike come from different tables or passages of the source.

Experiments:
in vivo = conditions: mouse
conscious SH rats [1] = experiment: antihypertensive activity, oral, in conscious SH rats (mean blood pressure); assay type: in vivo; conditions: for decrease of the mean blood pressure (--BP), maximum / antihypertensive activity: conscious SH rats, oral; for decrease of the mean blood pressure (--BP), maximum: 1.6 mg/kg; for duration of antihypertensive effect (in words): SH rats
Experimental: The maximum hypotensive effect, proportional to the administered dose, takes place 5-7 hours after the administration and the blood pressure is maintained at the decreased level for further 4-5 hours, at least. […]
Dosages such as 0.2-0.4 mg/Kg are sufficient to stabilize gradually the mean B.P. to lower level for a 24 hrs period. The drop-out of the pharmacological treatment is not combined with an acute hypertensive rebound effect but in the following 2-3 days the mean blood pressure gradually rises to the initial values.

beagle dogs [2] = conditions: dog, in vivo
mice = experiment: acute toxicity in mice (LD50, os and i.p.)
[3] = test system: K^+ -depolarized rat aorta strips; experiment: inhibition of contractile responses to increasing Ca++ concentration in K+ depolarized rat aorta strips
beagle dogs [4] = experiment: tolerability in male and female beagle dogs, oral bolus administration; conditions: 1.5 mg/kg/day
conscious SH rats [5] = conditions: in the same experimental models; cited from earlier work

| SMILES | LD50 (in vivo; ip) | LD50 (in vivo; po) | further results |
| --- | --- | --- | --- |
| CCOC(=O)C1=C(C)NC(CSCCN)=C(C(=O)OCC)C1c1ccccc1C(F)(F)F (centres unmarked) [Compound 3] | 5 mg/kg | 9 mg/kg |  |
| CCOC(=O)C1=C(CSCCN(C)C)NC(C)=C(C(=O)OC)C1c1cccc([N+](=O)[O-])c1 (centres unmarked) [Compound 12] | 25 mg/kg | 38 mg/kg | decrease of the mean blood pressure (--BP), maximum (conscious SH rats [1]): higher than 85 mmHg |
| COC(=O)C1=C(C)NC(CSCCN)=C(C(=O)OC)C1c1cccc([N+](=O)[O-])c1 (centres unmarked) [Compound 25] | 25 mg/kg | 53 mg/kg |  |
| CCOC(=O)C1=C(C)NC(CSCCN)=C(C(=O)OCC)C1c1cccc([N+](=O)[O-])c1 (centres unmarked) [Compound 10] | 20 mg/kg | 21 mg/kg | decrease of the mean blood pressure (--BP), maximum (conscious SH rats [1]): higher than 85 mmHg |
| CCOC(=O)C1=C(CSCCCCN)NC(C)=C(C(=O)OC)C1c1cccc([N+](=O)[O-])c1 (centres unmarked) [Compound 18] | 4 mg/kg | 11 mg/kg |  |
| CCOC(=O)C1=C(CSCCNC=O)NC(C)=C(C(=O)OC)C1c1ccccc1SC (centres unmarked) [N-formylation of compound 8] |  | 90 mg/kg |  |
| CCOC(=O)C1=C(CSCCN)NC(C)=C(C#N)C1c1cccc([N+](=O)[O-])c1 (centres unmarked) [Compound 22] | 82 mg/kg | 611 mg/kg |  |
| CCOC(=O)C1=C(CSCCNC=O)NC(C)=C(C(=O)OC)C1c1cccc([N+](=O)[O-])c1 (centres unmarked) [Example 3, 2-(2-formylaminoethylthio)-methyl-3-ethoxycarbonyl-5-methoxycarbonyl-4-(m-nitrophenyl)-6-methyl-1.4-dihydropyridine] | 150 mg/kg | 200 mg/kg | duration of antihypertensive effect (in words) (conscious SH rats [1]): long lasting effects; antihypertensive activity (conscious SH rats [1]; once daily, very low doses (for ex. 0.2 mg/kg/os)): pronounced and long lasting antihypertensive activity; death of dogs (beagle dogs [2]): do not die after two weeks treatment; tolerability in dogs (beagle dogs [2]): high tolerability; acute toxicity (in words) (mice; mice where stated): low oral acute toxicity |
| COC(=O)C1=C(C)NC(C)=C(C(=O)OC)C1c1ccccc1[N+](=O)[O-] [nifedipine] |  |  | dependence of inhibition on incubation time [3]: not related to the incubation time |
| CCOC(=O)C1=C(CSCCCN)NC(C)=C(C(=O)OC)C1c1cccc([N+](=O)[O-])c1 (centres unmarked) [Compound 17] | 16 mg/kg | 22 mg/kg |  |
| CCCCNCCSCC1=C(C(=O)OCC)C(c2cccc([N+](=O)[O-])c2)C(C(=O)OC)=C(C)N1 (centres unmarked) [Compound 14] |  | 23 mg/kg | LD50 in mice, i.p. (mice; mice, i.p.): 12 mg/kg |
| CCOC(=O)C1=C(CSCCN)NC(C)=C(C(=O)OC)C1c1ccccc1SC (centres unmarked) [Compound 8] | 5 mg/kg | 8 mg/kg |  |
| CCCCNCCSCC1=C(C(=O)OCC)C(c2cccc([N+](=O)[O-])c2)C(C(=O)OC)=C(C)N1 (centres unmarked) [Compound 15] |  |  | death of dogs (beagle dogs [4]): died after three days treatment; LD50 in mice, i.p. (mice; mice, i.p.): 39 mg/kg; LD50 in mice, OS (mice; mice, oral (os)): 40 mg/kg |
| CCOC(=O)C1=C(CSCC2CCCN2)NC(C)=C(C(=O)OC)C1c1cccc([N+](=O)[O-])c1 (centres unmarked) [Compound 16c] |  |  | LD50 in mice, i.p. (mice; mouse, in vivo, ip): 27 mg/kg; LD50 in mice, OS (mice; mouse, in vivo, po): 55 mg/kg |
| CCOC(=O)C1=C(CSCCN)NC(C)=C(C(=O)OC)C1c1ccccc1 (centres unmarked) [Compound 1] | 31 mg/kg | 33 mg/kg |  |
| CCOC(=O)C1=C(CSCC(N)CO)NC(C)=C(C(=O)OC)C1c1cccc([N+](=O)[O-])c1 (centres unmarked) [Compound 31] | 87 mg/kg | 371 mg/kg |  |
| CCOC(=O)C1=C(CSCCN)NC(C)=C(C(=O)OC)C1c1ccccc1Cl (centres unmarked) [Compound 6, 2-(2-aminoethylthio)methyl-3-ethoxycarbonyl-5-methoxycarbonyl-4-(2-chlorophenyl)-6-methyl-1,4-dihydropyridine] | 4 mg/kg | 5 mg/kg | decrease of the mean blood pressure (--BP), maximum (conscious SH rats [1]): higher than 85 mmHg |
| CCOC(=O)C1=C(CSCCN)NC(C)=C([N+](=O)[O-])C1c1cccc([N+](=O)[O-])c1 (centres unmarked) [Compound 21] | 108 mg/kg | 451 mg/kg |  |
| CCOC(=O)C1=C(CSCCN)NC(C)=C(C(=O)OC(C)C)C1c1cccc([N+](=O)[O-])c1 (centres unmarked) [Compound 24] | 25 mg/kg | 53 mg/kg |  |
| CCOC(=O)C1=C(CSCCN)NC(C)=C(C(=O)OC)C1c1ccccc1C(F)(F)F (centres unmarked) [Compound 2] | 2 mg/kg | 2 mg/kg | decrease of the mean blood pressure (--BP), maximum (conscious SH rats [1]): higher than 85 mmHg |

| SMILES | LD50 (in vivo; ip) | LD50 (in vivo; po) | further results |
| --- | --- | --- | --- |
| CCOC(=O)C1=C(CSCC(N)c2ccccc2)NC(C)=C(C(=O)OC)C1c1cccc([N+](=O)[O-])c1 (centres unmarked) [Compound 29] | 46 mg/kg | 77 mg/kg |  |
| CCOC(=O)C1=C(CSCCN)NC(C)=C(C(=O)OC)C1c1cccc(C#N)c1 (centres unmarked) [Compound 28] | 43 mg/kg | 34 mg/kg |  |
| CCOC(=O)C1=C(CSCCN)NC(C)=C(C(=O)OCCN(C)Cc2ccccc2)C1c1cccc([N+](=O)[O-])c1 (centres unmarked) [Compound 23] | 32 mg/kg | 91 mg/kg |  |
| CCOC(=O)C1=C(C)NC(CSCC(N)C(=O)OCC)=C(C(=O)OCC)C1c1cccc([N+](=O)[O-])c1 (centres unmarked) [Compound 32] | 354 mg/kg | 763 mg/kg |  |
| CCOC(=O)C1=C(CSCCN)NC(C)=C(C(=O)OC)C1c1cccc([N+](=O)[O-])c1 (centres unmarked) [Compound 13] | 8 mg/kg | 21 mg/kg |  |
| CCOC(=O)C1=C(CSCCN)NC(C)=C(C(=O)OC)C1c1cccc(C(F)(F)F)c1 (centres unmarked) [Compound 9] | 23 mg/kg | 40 mg/kg |  |
| CCOC(=O)C1=C(CSCC2CCCN2)NC(C)=C(C(=O)OC)C1c1cccc([N+](=O)[O-])c1 (centres unmarked) [Compound 16d] |  |  | antihypertensive activity (conscious SH rats [1]; 3.2 mg/kg): practically inactive; LD50 in mice, i.p. (mice; mouse, in vivo, ip): 1000 mg/kg; LD50 in mice, OS (mice; mouse, in vivo, po): 1000 mg/kg |
| CCOC(=O)C1=C(CSCCN)NC(C)=C(C(=O)OC)C1c1cccc([N+](=O)[O-])c1 (racemic) [Compound 11, 2-(2-aminoethylthio)methyl-3-ethoxycarbonyl-5-methoxycarbonyl-4-(m-nitrophenyl)-6-methyl-1,4-dihydropyridine] | 22 mg/kg | 52 mg/kg | duration of antihypertensive effect (in words) (conscious SH rats [1]): long lasting effects; decrease of the mean blood pressure (--BP), maximum (conscious SH rats [1]): higher than 85 mmHg; death of dogs (beagle dogs [4]): died after three days treatment |
| CCOC(=O)C1=C(CSCCNC(C)=O)NC(C)=C(C(=O)OC)C1c1cccc([N+](=O)[O-])c1 (racemic) [rac 2-acetylamino ethyl-thio-methyl, reference compound] |  |  | duration of antihypertensive effect (in words) (conscious SH rats [1]): shorter lasting antihypertensive effect |
| CCOC(=O)C1=C(C)NC(CSCCN)=C(C(=O)OCC)C1c1ccccc1Cl (centres unmarked) [Compound 5] | 9 mg/kg | 12 mg/kg | decrease of the mean blood pressure (--BP), maximum (conscious SH rats [1]): higher than 85 mmHg |
| NNc1nncc2ccccc12 [hydralazine] |  |  | reflex tachicardia (other antihypertensive agents) (conscious SH rats [5]): often observed |
| CCOC(=O)C1=C(CSCCN)NC(C)=C(C(=O)OC)C1c1cccc(Cl)c1 (centres unmarked) [Compound 7] | 23 mg/kg | 40 mg/kg | decrease of the mean blood pressure (--BP), maximum (conscious SH rats [1]): higher than 85 mmHg |
| CCOC(=O)C1=C(CSCCN)NC(C)=C(C(=O)OC)C1c1cccc(OC)c1 (centres unmarked) [Compound 26] | 59 mg/kg | 82 mg/kg |  |
| CCOC(=O)C1=C(CSCC2CCCN2)NC(C)=C(C(=O)OC)C1c1cccc([N+](=O)[O-])c1 (centres unmarked) [Compound 16a] |  |  | LD50 in mice, i.p. (mice; mouse, in vivo, ip): 7 mg/kg; LD50 in mice, OS (mice; mouse, in vivo, po): 17 mg/kg |
| CCOC(=O)C1=C(CSCCN)NC(C)=C(C(=O)OC)C1c1ccccc1[N+](=O)[O-] (centres unmarked) [Compound 4] | 2 mg/kg | 3 mg/kg |  |
| CCOC(=O)C1=C(CSCCN)NC(C)=C(C(=O)OC)C1c1ccc(F)cc1 (centres unmarked) [Compound 27] | 28 mg/kg | 46 mg/kg |  |
| CCOC(=O)C1=C(CSCC(C)N)NC(C)=C(C(=O)OC)C1c1cccc([N+](=O)[O-])c1 (centres unmarked) [Compound 30] | 50 mg/kg | 42 mg/kg |  |
| CCOC(=O)C1=C(C)NC(CSCCNCCC#N)=C(C(=O)OCC)C1c1cccc([N+](=O)[O-])c1 (centres unmarked) [Compound 19] | 54 mg/kg | 95 mg/kg |  |
| CCOC(=O)C1=C(CSCCNCCC#N)NC(C)=C(C(=O)OC)C1c1cccc([N+](=O)[O-])c1 (centres unmarked) [Compound 20, 2-[2-[N-(2-cyanoethyl)aminoethyl]thio]methyl-3-ethoxycarbonyl-5-methoxycarbonyl-4-(m-nitrophenyl)-6-methyl-1,4-dihydropyridine] | 35 mg/kg | 63 mg/kg |  |
| CCOC(=O)C1=C(CSCC2CCCN2)NC(C)=C(C(=O)OC)C1c1cccc([N+](=O)[O-])c1 (centres unmarked) [Compound 16b] |  |  | LD50 in mice, i.p. (mice; mouse, in vivo, ip): 25 mg/kg; LD50 in mice, OS (mice; mouse, in vivo, po): 39 mg/kg |
